Values joined by “and” are separate entries in the source; they are usually repeats but may differ in a detail not shown here. Equal entries are not always repeated. Toxic doses and inconclusive results are not listed.
Test system: L1210 leukemia ip in BDF1 mice, survival T/C
Assay: NCI In Vivo Anticancer Drug Screen. Data for tumor model L1210 Leukemia (intraperitoneal) in B6D2F1 (BDF1) mice
Conditions: endpoint: mean survival time, higher = longer survival
In short: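 Mice bearing the transplanted tumor received compound or vehicle. Survival of the treated group was divided by that of the vehicle-treated control group to give the ratio.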

[1] = dose: 25.0 mg/kg/injection, schedule: Q04DX003 (ip), vehicle: saline
[2] = dose: 50.0 mg/kg/injection, schedule: Q04DX003 (ip), vehicle: saline
[3] = dose: 100.0 mg/kg/injection, schedule: Q01DX009 (ip), vehicle: saline with Tween-80
[4] = dose: 100.0 mg/kg/injection, schedule: Q04DX003 (ip), vehicle: saline with Tween-80
[5] = dose: 200.0 mg/kg/injection, schedule: Q01DX009 (ip), vehicle: saline with Tween-80
[6] = dose: 200.0 mg/kg/injection, schedule: Q04DX003 (ip), vehicle: saline with Tween-80
[7] = dose: 400.0 mg/kg/injection, schedule: Q01DX009 (ip), vehicle: saline with Tween-80
[8] = dose: 400.0 mg/kg/injection, schedule: Q04DX003 (ip), vehicle: saline with Tween-80
[9] = dose: 100.0 mg/kg/injection, schedule: Q04DX002 (ip), vehicle: saline
[10] = dose: 200.0 mg/kg/injection, schedule: Q04DX002 (ip), vehicle: saline
[11] = dose: 400.0 mg/kg/injection, schedule: Q04DX002 (ip), vehicle: saline
[12] = dose: 100.0 mg/kg/injection, schedule: Q04DX003 (ip), vehicle: Klucel (hydroxypropylcellulose) (HPC)

In the case of `COc1ccc2c(c1)C1C=[S+]c3ccccc3C1N2` (stereo not given), the T/C (dose: 12.5 mg/kg/injection, schedule: Q01DX009 (ip), vehicle: saline) is reported as 101 % of control, the T/C (dose: 12.5 mg/kg/injection, schedule: Q04DX003 (ip), vehicle: saline) is reported as 95 % of control and the T/C (dose: 25.0 mg/kg/injection, schedule: Q01DX009 (ip), vehicle: saline) is reported as 103 % of control. The T/C [1] was 92 % of control and the T/C [2] was 98 % of control.
In the case of `Cc1cccc(NC(=O)NC2CCCCC2)c1C`, the T/C (dose: 100.0 mg/kg/injection, schedule: Q04DX002 (ip), vehicle: Klucel (hydroxypropylcellulose) (HPC)) is reported as 111 % of control, the T/C (dose: 200.0 mg/kg/injection, schedule: Q04DX002 (ip), vehicle: Klucel (hydroxypropylcellulose) (HPC)) is reported as 99 % of control and the T/C (dose: 400.0 mg/kg/injection, schedule: Q04DX002 (ip), vehicle: Klucel (hydroxypropylcellulose) (HPC)) is reported as 86 % of control.
For `CC1CC(=O)NC(=O)N1` (stereo not given), the T/C [3] was 98 % of control, the T/C [4] was 105 % of control and the T/C [5] was 100 % of control. For the same compound, the T/C [6] was 93 % of control, the T/C [7] was 106 % of control and the T/C [8] was 107 % of control.
In the case of `NC(=O)OCCCl`, the T/C [9] is reported as 98 % of control, the T/C [10] is reported as 109 % of control and the T/C [11] is reported as 102 % of control.
With `COc1cccc(/C=C/[N+](=O)[O-])c1OCc1ccccc1` the T/C (dose: 12.5 mg/kg/injection, schedule: Q04DX003 (ip), vehicle: saline with Tween-80) was 117 % of control, the T/C (dose: 25.0 mg/kg/injection, schedule: Q04DX003 (ip), vehicle: saline with Tween-80) was 95 % of control and the T/C (dose: 50.0 mg/kg/injection, schedule: Q04DX003 (ip), vehicle: saline with Tween-80) was 111 % of control.
In the case of `O=C(NCCCl)NC1CCCCC1`, the T/C (dose: 100.0 mg/kg/injection, schedule: Q01DX001 (ip), vehicle: Klucel (hydroxypropylcellulose) (HPC)) is reported as 88 % of control, the T/C (dose: 200.0 mg/kg/injection, schedule: Q01DX001 (ip), vehicle: Klucel (hydroxypropylcellulose) (HPC)) is reported as 89 % of control and the T/C (dose: 400.0 mg/kg/injection, schedule: Q01DX001 (ip), vehicle: Klucel (hydroxypropylcellulose) (HPC)) is reported as 100 % of control.
With `S=C=Nc1cccc(N=C=S)c1` the T/C (dose: 5.0 mg/kg/injection, schedule: Q01DX001 (ip), vehicle: acetone) was 105 % of control, the T/C (dose: 10.0 mg/kg/injection, schedule: Q01DX001 (ip), vehicle: acetone) was 124 % of control and the T/C (dose: 20.0 mg/kg/injection, schedule: Q01DX001 (ip), vehicle: acetone) was 100 % of control.
For `CCOC(=O)C1CC(=O)NC(N)=N1` (stereo not given), the T/C (dose: 100.0 mg/kg/injection, schedule: Q01DX Z (ip), vehicle: saline) was 95 % of control and the T/C (dose: 200.0 mg/kg/injection, schedule: Q01DX Z (ip), vehicle: saline) was 100 % of control.
In the case of `CC#CCCC(=O)OCCCC`, the T/C (dose: 100.0 mg/kg/injection, schedule: Q04DX002 (ip), vehicle: saline with Tween-80) is reported as 101 % of control, the T/C (dose: 200.0 mg/kg/injection, schedule: Q04DX002 (ip), vehicle: saline with Tween-80) is reported as 93 % of control and the T/C (dose: 400.0 mg/kg/injection, schedule: Q04DX002 (ip), vehicle: saline with Tween-80) is reported as 97 % of control.
With `COC(=O)/C=C(/Nc1cc(Cl)cc(Cl)c1)C(=O)OC` the T/C (dose: 100.0 mg/kg/injection, schedule: Q01DX001 (ip), vehicle: saline) was 95 % of control, the T/C (dose: 100.0 mg/kg/injection, schedule: Q04DX003 (ip), vehicle: other) was 86 % of control and the T/C (dose: 200.0 mg/kg/injection, schedule: Q01DX001 (ip), vehicle: saline) was 98 % of control. For the same compound, the T/C (dose: 400.0 mg/kg/injection, schedule: Q01DX001 (ip), vehicle: saline) was 90 % of control and the T/C (dose: 400.0 mg/kg/injection, schedule: Q04DX003 (ip), vehicle: other) was 104 % of control.
In the case of `O=COCC1CCC(NC(=O)N(CCCl)N=O)CC1` (stereo not given), the T/C (dose: 2.6 mg/kg/injection, schedule: Q01DX001 (ip), vehicle: Klucel (hydroxypropylcellulose) (HPC)) is reported as 103 % of control, the T/C (dose: 4.0 mg/kg/injection, schedule: Q01DX001 (ip), vehicle: Klucel (hydroxypropylcellulose) (HPC)) is reported as 111 % of control and the T/C (dose: 6.0 mg/kg/injection, schedule: Q01DX001 (ip), vehicle: Klucel (hydroxypropylcellulose) (HPC)) is reported as 123 % of control. The T/C (dose: 9.0 mg/kg/injection, schedule: Q01DX001 (ip), vehicle: Klucel (hydroxypropylcellulose) (HPC)) was 227 % of control, the T/C (dose: 12.0 mg/kg/injection, schedule: Q01DX001 (ip), vehicle: Klucel (hydroxypropylcellulose) (HPC)) was 293 % of control and 319 % of control and the T/C (dose: 15.0 mg/kg/injection, schedule: Q01DX001 (ip), vehicle: Klucel (hydroxypropylcellulose) (HPC)) was 273 % of control. The T/C (dose: 18.0 mg/kg/injection, schedule: Q01DX001 (ip), vehicle: Klucel (hydroxypropylcellulose) (HPC)) was 328 % of control and the T/C (dose: 26.0 mg/kg/injection, schedule: Q01DX001 (ip), vehicle: Klucel (hydroxypropylcellulose) (HPC)) was 280 % of control.
With `C=COCCCCCC` the T/C [9] was 103 % of control, the T/C [10] was 100 % of control and the T/C [11] was 90 % of control.
In the case of `N#CSCC(=O)c1ccccc1`, the T/C (dose: 3.0 mg/kg/injection, schedule: Q01DX009 (ip), vehicle: Klucel (hydroxypropylcellulose) (HPC)) is reported as 104 % of control, the T/C (dose: 6.0 mg/kg/injection, schedule: Q01DX009 (ip), vehicle: Klucel (hydroxypropylcellulose) (HPC)) is reported as 101 % of control and the T/C (dose: 12.0 mg/kg/injection, schedule: Q01DX001 (ip), vehicle: saline) is reported as 105 % of control. The T/C (dose: 12.0 mg/kg/injection, schedule: Q01DX009 (ip), vehicle: Klucel (hydroxypropylcellulose) (HPC)) was 107 % of control, the T/C (dose: 12.0 mg/kg/injection, schedule: Q04DX003 (ip), vehicle: saline) was 104 % of control and the T/C (dose: 25.0 mg/kg/injection, schedule: Q01DX001 (ip), vehicle: saline) was 113 % of control. The T/C [1] was 106 % of control, the T/C (dose: 50.0 mg/kg/injection, schedule: Q01DX001 (ip), vehicle: saline) was 97 % of control and the T/C [2] was 101 % of control.
In the case of `c1ccc(Sc2ccc3ccccc3c2)cc1`, the T/C [3] is reported as 103 % of control, the T/C [5] is reported as 97 % of control and the T/C [7] is reported as 93 % of control.
For `NC(=S)N/N=C/c1ccccc1N`, the T/C [3] was 102 % of control, the T/C [5] was 96 % of control and the T/C [7] was 96 % of control.
With `CCCCCCCCOC(=O)c1ccccc1C(=O)OCCCCCCCC` the T/C (dose: 100.0 mg/kg/injection, schedule: Q01DX009 (ip), vehicle: Klucel (hydroxypropylcellulose) (HPC)) was 96 % of control, the T/C [12] was 97 % of control and the T/C (dose: 200.0 mg/kg/injection, schedule: Q01DX009 (ip), vehicle: Klucel (hydroxypropylcellulose) (HPC)) was 94 % of control. The T/C (dose: 200.0 mg/kg/injection, schedule: Q04DX003 (ip), vehicle: Klucel (hydroxypropylcellulose) (HPC)) was 93 % of control, the T/C (dose: 400.0 mg/kg/injection, schedule: Q01DX009 (ip), vehicle: Klucel (hydroxypropylcellulose) (HPC)) was 96 % of control and the T/C (dose: 400.0 mg/kg/injection, schedule: Q04DX003 (ip), vehicle: Klucel (hydroxypropylcellulose) (HPC)) was 92 % of control.
`CCC[CH2][Ge]([Cl])([Cl])[CH2]CCC` was tested, and the T/C (dose: 25.0 mg/kg/injection, schedule: Q01DX009 (ip), vehicle: Klucel (hydroxypropylcellulose) (HPC)) was 89 % of control, the T/C (dose: 25.0 mg/kg/injection, schedule: Q04DX003 (ip), vehicle: Klucel (hydroxypropylcellulose) (HPC)) was 93 % of control and the T/C (dose: 50.0 mg/kg/injection, schedule: Q01DX009 (ip), vehicle: Klucel (hydroxypropylcellulose) (HPC)) was 94 % of control. For the same compound, the T/C (dose: 50.0 mg/kg/injection, schedule: Q04DX003 (ip), vehicle: Klucel (hydroxypropylcellulose) (HPC)) was 96 % of control and the T/C [12] was 106 % of control.
With `Cc1ncc(C(=O)c2ccccc2)n1Cc1ccccc1` the T/C (dose: 100.0 mg/kg/injection, schedule: Q01DX001 (ip), vehicle: saline with Tween-80) was 88 % of control, the T/C [4] was 94 % of control and the T/C (dose: 200.0 mg/kg/injection, schedule: Q01DX001 (ip), vehicle: saline with Tween-80) was 90 % of control. For the same compound, the T/C [5] was 94 % of control and 107 % of control, the T/C [6] was 92 % of control and the T/C (dose: 400.0 mg/kg/injection, schedule: Q01DX001 (ip), vehicle: saline with Tween-80) was 95 % of control. For the same compound, the T/C [7] was 96 % of control and 100 % of control and the T/C [8] was 90 % of control.
With `O=C(NC(C(O)CO)C(OC(=O)c1ccccc1)C(O)CO)c1ccccc1` (stereo not given) the T/C [3] was 105 % of control, the T/C [5] was 94 % of control and the T/C [7] was 94 % of control.
With `CCCCOc1ccc(CC(N)C(=O)O)cc1N(CCCl)CCCl` (stereo not given) the T/C (dose: 6.6 mg/kg/injection, schedule: Q01DX001 (ip), vehicle: carboxymethylcellulose (CMC)) was 111 % of control, the T/C (dose: 10.0 mg/kg/injection, schedule: Q01DX001 (ip), vehicle: carboxymethylcellulose (CMC)) was 116 % of control and the T/C (dose: 10.0 mg/kg/injection, schedule: Q01DX001 (ip), vehicle: saline) was 122 % of control. For the same compound, the T/C (dose: 30.0 mg/kg/injection, schedule: Q01DX001 (ip), vehicle: saline) was 107 % of control, the T/C (dose: 60.0 mg/kg/injection, schedule: Q01DX001 (ip), vehicle: saline) was 102 % of control and the T/C (dose: 90.0 mg/kg/injection, schedule: Q01DX001 (ip), vehicle: saline) was 101 % of control.

Reference: PubChem BioAssay AID248 (DTP/NCI, 2004)
